Data on seven compounds can be found in ChEMBL document CHEMBL1201862, “PubChem BioAssay data set” (2004).

The structures appear in SMILES notation.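 In this assay, cells in 96-well plates receive the compound at five concentrations for 48 hours. Endpoints are linearly interpolated between the surrounding concentrations. GI50: concentration for 50% inhibition of growth.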 Active and inactive are the calls of the source. Cut-off read from the data, not from the text of the source: active = GI50 up to about 1.1 µM and inactive = higher.

Holding throughout (assay): growth of human tumour cells (NCI), 48 h
Experiment [1] relates to A549.
The test system of experiment [2] is MOLT-4.
Experiment [3] concerns KM12.
Experiment [4] has as its system DU-145.
Experiment [5] concerns 786-0.
The test system of experiment [6] is OVCAR-8.
The test system of experiment [7] is ACHN.
In experiment [8] the test system is HOP-92.
For experiment [9], the system named is SF-268.
Experiment [10] has as its system MDA-MB-435.
The subject of experiment [11] is SK-OV-3.
In experiment [12] the test system is M14.
The subject of experiment [13] is COLO 205.
The test system of experiment [14] is A498.
The test system of experiment [15] is OVCAR-3.
The test system of experiment [16] is SF-295.
Experiment [17] concerns NCI/ADR-RES.
The subject of experiment [18] is IGROV-1.
The subject of experiment [19] is U-251.
In experiment [20] the test system is SK-MEL-2.

Take `COc1cccc2c(N)c3cccc(C(=O)NCCN(C)C)c3nc12`: the GI50 was 0.0233 µM (active) in experiment [1]; < 0.01 µM (active) in [2]; 0.252 µM (active) in experiment [3]; 0.261 µM (active) in experiment [4]; 0.0339 µM (active) in experiment [5]; 0.134 µM (active) in experiment [6]. The GI50 in experiment [7] is 0.0991 µM (active); in experiment [8], 0.163 µM (active); in experiment [9], 0.0659 µM (active); in [10], 0.422 µM (active); in experiment [11], 0.233 µM (active); in experiment [12], 0.432 µM (active). Moreover, the GI50 in [13] is 0.13 µM (active); in experiment [14] it was 0.281 µM (active); in experiment [15], 0.369 µM (active); in experiment [16] it was 0.297 µM (active); in [17], 0.979 µM (active); in experiment [18] it was 0.22 µM (active). Besides, the GI50 in experiment [19] was 0.159 µM (active); in [20] it was 0.447 µM (active).

`O=C(/C=C/c1cccs1)c1ccccc1Cl`: the GI50 in experiment [1] is 0.417 µM (active); in experiment [2], 5.7 µM (inactive); in experiment [3] it was 7.31 µM (inactive); in experiment [4], 12.4 µM (inactive); in experiment [5], 14.1 µM (inactive); in experiment [6], 23.7 µM (inactive). In addition, the GI50 in [7] was 14.8 µM (inactive); in [8] it was 25.5 µM (inactive); in [9], 11.4 µM (inactive); in experiment [10], 10.9 µM (inactive); in [11], 30.7 µM (inactive); in experiment [12], 1.99 µM (inactive). Also, the GI50 in experiment [13] was 18.8 µM (inactive); in experiment [14], 10.2 µM (inactive); in experiment [15] it was 14.1 µM (inactive); in [16] it was 17.8 µM (inactive); in experiment [17], 15 µM (inactive); in [18], 17.6 µM (inactive). Moreover, the GI50 is 13.5 µM (inactive) in experiment [19] and 20.1 µM (inactive) in experiment [20].

For `COc1cc(C2OC[C@@H]3C(=O)OC[C@H]23)cc(O)c1OC` (stereo not given in full), the GI50 in experiment [1], in experiment [2], in [3], in experiment [4], in experiment [5] and in [6] was > 100 µM (inactive) throughout. Besides, the GI50 in [7], in [8], in experiment [9], in experiment [10], in experiment [11] and in experiment [12] was > 100 µM (inactive) in each case. In addition, the GI50 in experiment [13], in experiment [14], in experiment [15], in [16], in [17] and in experiment [18] was > 100 µM (inactive) throughout. Further, the GI50 in experiment [19] and in experiment [20] was > 100 µM (inactive) each time.

Consider `COC(=O)/C=C1/OC(c2ccccc2)=C(Cl)C1=O`, for which the GI50 in [1] is 26.4 µM (inactive); in experiment [2], 5.32 µM (inactive); in experiment [3], 21 µM (inactive); in [4], 29 µM (inactive); in experiment [5], 18.3 µM (inactive); in experiment [6], 21.3 µM (inactive). The GI50 is 17.7 µM (inactive) in experiment [7]; 20 µM (inactive) in [8]; 19.5 µM (inactive) in [9]; 19.3 µM (inactive) in experiment [10]; 31.6 µM (inactive) in experiment [11]; 16.9 µM (inactive) in experiment [12]. Also, the GI50 in [13] is 15.9 µM (inactive); in experiment [14], 29.4 µM (inactive); in experiment [15], 16.7 µM (inactive); in experiment [16], 27.7 µM (inactive); in experiment [17], 25.9 µM (inactive); in experiment [18] it was 19.8 µM (inactive). Also, the GI50 in experiment [19] is 14 µM (inactive); in [20] it was 21.3 µM (inactive).

On to `O=C(Nc1ccc(Cl)cc1Cl)C1C(=O)OC2(CCCCC2)OC1=O`, for which the GI50 in [1] was 4.71 µM (inactive); in experiment [2], 5.15 µM (inactive); in experiment [3] it was 6.43 µM (inactive); in experiment [4] it was 10.5 µM (inactive); in experiment [5], 12.2 µM (inactive); in experiment [6], 5.7 µM (inactive). The GI50 in experiment [7] was 6.07 µM (inactive); in experiment [8] it was 6.82 µM (inactive); in [9], 14.6 µM (inactive); in experiment [10], 8.2 µM (inactive); in experiment [11], 10.6 µM (inactive); in experiment [12], 8.77 µM (inactive). The GI50 in experiment [13] was 10.4 µM (inactive); in experiment [14] it was 12.8 µM (inactive); in experiment [15] it was 3.18 µM (inactive); in [16], 2.92 µM (inactive); in [17], 4.93 µM (inactive); in [18], 5.98 µM (inactive). The GI50 in experiment [19] was 5.32 µM (inactive); in experiment [20] it was 2.93 µM (inactive).

Turning to `COC(C)(C)OCCN1CCN(CCN2C3=C(C=C(C(C)=O)C3)Sc3ccccc32)CC1`, the GI50 was 32.6 µM (inactive) in experiment [1]; 17.3 µM (inactive) in [2]; 16.7 µM (inactive) in experiment [3]; 21.8 µM (inactive) in experiment [4]; 19.1 µM (inactive) in [5]; 20.9 µM (inactive) in experiment [6]. The GI50 in experiment [7] is 18.1 µM (inactive); in experiment [8] it was 29.5 µM (inactive); in experiment [9] it was 19.6 µM (inactive); in experiment [10], 16 µM (inactive); in experiment [11], 35.8 µM (inactive); in [12] it was 20.3 µM (inactive). Besides, the GI50 in [13] is 17.6 µM (inactive); in experiment [14], 17.6 µM (inactive); in experiment [15] it was 22.2 µM (inactive); in experiment [16] it was 19.5 µM (inactive); in [17] it was 20.7 µM (inactive); in experiment [18] it was 20 µM (inactive). Moreover, the GI50 in experiment [19] is 18.5 µM (inactive); in experiment [20], 20.2 µM (inactive).

For the compound `CC(=O)Nc1ccc(-c2nc3ccccc3s2)cc1Br`, the GI50 in experiment [1] is > 86.9 µM (inactive); in [2], > 100 µM (inactive); in experiment [3] it was > 100 µM (inactive); in experiment [4], 48.2 µM (inactive); in [5], 35.6 µM (inactive); in experiment [6], 31 µM (inactive). The GI50 in experiment [7] was 63.4 µM (inactive); in [8], 46 µM (inactive); in [9] it was 44.3 µM (inactive); in [10], > 100 µM (inactive); in [11] it was 23.2 µM (inactive); in experiment [12] it was 77.4 µM (inactive). In addition, the GI50 in experiment [13] was > 86.7 µM (inactive); in experiment [14] it was 4.54 µM (inactive); in experiment [15] it was 0.305 µM (active); in experiment [16], 30.8 µM (inactive); in experiment [17] it was 73.3 µM (inactive); in [18], 0.0124 µM (active). For the same compound, the GI50 in [19] is 46 µM (inactive); in [20] it was > 100 µM (inactive).
